In patent US11040981B2, “Pyrrolotriazine compounds and methods of inhibiting TAM kinases” (Syros Pharmaceuticals, Inc., priority 2017, dated 2021):

Assays:
MERTK = target: T1, MERTK (Homo sapiens, UniProt Q12866); experiment: TR-FRET kinase activity assay, MERTK; format: biochemical; details: for IC50: TR-FRET activity assay, ATP at Km, 60 minutes, read-out: Mer IC50; for FLT3/Mer ratio (FLT3 IC50/Mer IC50): ratio of Mer to FLT3: FLT3 IC50/Mer IC50
T1 sequence (Q12866 21-999): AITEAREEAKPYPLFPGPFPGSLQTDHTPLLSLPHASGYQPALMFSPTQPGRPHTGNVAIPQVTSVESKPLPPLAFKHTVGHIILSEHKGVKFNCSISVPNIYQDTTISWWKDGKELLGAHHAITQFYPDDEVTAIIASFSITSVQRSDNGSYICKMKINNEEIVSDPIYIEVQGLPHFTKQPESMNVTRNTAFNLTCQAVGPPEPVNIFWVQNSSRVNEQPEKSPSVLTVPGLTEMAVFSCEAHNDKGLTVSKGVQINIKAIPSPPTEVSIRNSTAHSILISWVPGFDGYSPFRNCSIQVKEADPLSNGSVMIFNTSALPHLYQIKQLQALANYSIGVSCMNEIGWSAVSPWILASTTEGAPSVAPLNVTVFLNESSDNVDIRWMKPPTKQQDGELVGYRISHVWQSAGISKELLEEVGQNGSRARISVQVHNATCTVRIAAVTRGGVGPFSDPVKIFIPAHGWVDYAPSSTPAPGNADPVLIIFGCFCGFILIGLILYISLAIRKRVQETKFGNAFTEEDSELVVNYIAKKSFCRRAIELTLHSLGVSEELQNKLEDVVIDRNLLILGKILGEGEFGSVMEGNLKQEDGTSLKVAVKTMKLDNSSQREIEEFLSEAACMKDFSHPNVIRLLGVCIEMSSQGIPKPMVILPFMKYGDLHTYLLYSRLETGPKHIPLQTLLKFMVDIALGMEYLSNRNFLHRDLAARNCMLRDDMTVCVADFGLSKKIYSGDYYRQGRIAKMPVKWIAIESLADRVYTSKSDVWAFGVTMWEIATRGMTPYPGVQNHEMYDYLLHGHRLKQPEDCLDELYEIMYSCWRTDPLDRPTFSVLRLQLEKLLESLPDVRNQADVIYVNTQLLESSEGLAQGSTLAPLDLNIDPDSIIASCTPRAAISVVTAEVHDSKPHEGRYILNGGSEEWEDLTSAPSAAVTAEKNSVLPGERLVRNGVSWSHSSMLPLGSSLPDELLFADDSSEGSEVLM
Outline: (§1)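 Compounds were tested against each kinase with ATP set at its own Km and a labelled tyrosine peptide substrate. Following one hour at room temperature in buffer containing 10 mM MgCl2 and 1 mM DTT, phosphorylated product was detected by Europium antibody TR-FRET after EDTA quench, and IC50 values were calculated.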

AXL = target: T2, AXL (Homo sapiens, UniProt P30530); experiment: TR-FRET kinase activity assay, AXL; format: biochemical; details: ATP at Km, 60 minutes
T2 sequence (P30530 26-894): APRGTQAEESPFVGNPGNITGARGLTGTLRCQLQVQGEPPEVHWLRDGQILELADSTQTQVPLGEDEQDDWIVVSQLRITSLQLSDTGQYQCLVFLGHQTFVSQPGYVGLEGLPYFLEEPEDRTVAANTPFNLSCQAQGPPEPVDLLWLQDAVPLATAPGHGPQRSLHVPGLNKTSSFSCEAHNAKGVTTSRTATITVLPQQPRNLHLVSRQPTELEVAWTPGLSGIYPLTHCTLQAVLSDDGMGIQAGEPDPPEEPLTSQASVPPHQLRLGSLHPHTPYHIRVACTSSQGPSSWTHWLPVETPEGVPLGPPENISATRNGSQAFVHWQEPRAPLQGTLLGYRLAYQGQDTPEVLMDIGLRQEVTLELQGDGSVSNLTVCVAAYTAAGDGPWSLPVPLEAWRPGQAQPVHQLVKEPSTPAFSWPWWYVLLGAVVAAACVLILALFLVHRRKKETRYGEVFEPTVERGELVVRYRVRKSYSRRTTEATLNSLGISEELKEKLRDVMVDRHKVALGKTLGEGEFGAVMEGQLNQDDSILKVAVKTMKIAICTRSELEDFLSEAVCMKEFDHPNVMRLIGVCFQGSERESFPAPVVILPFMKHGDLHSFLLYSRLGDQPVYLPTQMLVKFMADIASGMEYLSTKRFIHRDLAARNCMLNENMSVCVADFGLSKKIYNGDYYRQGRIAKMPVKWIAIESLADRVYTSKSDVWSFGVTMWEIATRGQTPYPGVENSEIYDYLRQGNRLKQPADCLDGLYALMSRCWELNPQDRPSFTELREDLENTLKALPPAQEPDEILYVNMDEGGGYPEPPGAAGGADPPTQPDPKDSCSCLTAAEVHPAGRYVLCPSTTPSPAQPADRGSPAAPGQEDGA
Outline: as §1

| IC50 (MERTK) | FLT3/Mer ratio (FLT3 IC50/Mer IC50) (MERTK) | IC50 (AXL) | Structure (SMILES) |
| --- | --- | --- | --- |
| ≤ 100 nM | +++ (“+++” represents a ratio of >100) | ≤ 100 nM | COC[C@H](C)Nc1ncc2c(-c3ccnc(OC4CCN(C)CC4)c3)cc([C@H]3CC[C@H](O)CC3)n2n1 [Compound 342] |
| ≤ 100 nM | +++ (“+++” represents a ratio of >100) | ≤ 100 nM | COC[C@H](C)Nc1ncc2c(-c3ccnc(OC(C)C)c3)cc([C@H]3CC[C@H](O)CC3)n2n1 [Compound 343] |
| ≤ 100 nM | +++ (“+++” represents a ratio of >100) | ≤ 100 nM | COC[C@H](C)Nc1ncc2c(-c3ccnc(N4CCN(C(C)=O)CC4)c3)cc([C@H]3CC[C@H](O)CC3)n2n1 [Compound 344] |
| ≤ 100 nM | +++ (“+++” represents a ratio of >100) | ≤ 100 nM | COCCOc1cc(-c2cc([C@H]3CC[C@H](O)CC3)n3nc(N[C@@H](C)COC)ncc23)ccn1 [Compound 345] |
